Reference: ChEMBL document CHEMBL1145006 (J Med Chem, 2003)
Starred links: 1 amine or outer side, 2 acyl side, 3 side chain; linkers in the order of their positions; H or OH if unused. Positions of bridges follow the written chain, without caps; N, C: chain ends. Non-standard residues stand in square brackets, D forms with d. Residues, ends and D or L forms follow the SMILES beside them. Groups on a side chain read outwards from the residue. *: point of attachment. Ethylenediamine = C(CN[*:2])N[*:1]; Hyp = O=C(O)[C@@H]1C[C@@H](O)CN1; CO = O=C([*:1])[*:2]; Bn = c1ccc(C*)cc1

How the values were obtained:
Assay type in all cases: cell-based
[1] = biological target: Somatostatin receptor type 1 (Homo sapiens, UniProt P30872); assay: Binding affinity towards human Somatostatin receptor type 1 (sst1) using Tyr11-[125I]-SRIF as radioligand was determined in CHO cells
[2] = biological target: Somatostatin receptor type 2 (Homo sapiens, UniProt P30874); assay: Binding affinity towards human Somatostatin receptor type 2 (sst2) using Tyr11-[125I]-SRIF as radioligand was determined in CHO cells
[3] = biological target: Somatostatin receptor type 3 (Homo sapiens, UniProt P32745); assay: Binding affinity towards human Somatostatin receptor type 3 (sst3) using Tyr11-[125I]-SRIF as radioligand was determined in CHO cells
[4] = biological target: Somatostatin receptor type 4 (Homo sapiens, UniProt P31391); assay: Binding affinity towards human Somatostatin receptor type 4 (sst4) using Tyr11-[125I]-SRIF as radioligand was determined in CHO cells; conditions: for Log Ki: cho
[5] = biological target: Somatostatin receptor type 5 (Homo sapiens, UniProt P35346); assay: Binding affinity towards human Somatostatin receptor type 5 (sst5) using Tyr11-[125I]-SRIF as radioligand was determined in COS cell
Chain of Somatostatin receptor type 5 (P35346 whole entry): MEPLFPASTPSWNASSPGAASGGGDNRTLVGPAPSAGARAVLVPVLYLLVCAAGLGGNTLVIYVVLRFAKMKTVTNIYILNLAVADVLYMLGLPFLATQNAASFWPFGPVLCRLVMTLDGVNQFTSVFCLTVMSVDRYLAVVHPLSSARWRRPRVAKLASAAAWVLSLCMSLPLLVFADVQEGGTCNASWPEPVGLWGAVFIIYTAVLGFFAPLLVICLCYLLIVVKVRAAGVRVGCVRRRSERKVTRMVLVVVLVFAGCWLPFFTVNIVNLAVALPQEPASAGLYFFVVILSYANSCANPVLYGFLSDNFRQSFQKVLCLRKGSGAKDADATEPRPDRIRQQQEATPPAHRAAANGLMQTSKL

Chain of Somatostatin receptor type 4 (P31391 whole entry): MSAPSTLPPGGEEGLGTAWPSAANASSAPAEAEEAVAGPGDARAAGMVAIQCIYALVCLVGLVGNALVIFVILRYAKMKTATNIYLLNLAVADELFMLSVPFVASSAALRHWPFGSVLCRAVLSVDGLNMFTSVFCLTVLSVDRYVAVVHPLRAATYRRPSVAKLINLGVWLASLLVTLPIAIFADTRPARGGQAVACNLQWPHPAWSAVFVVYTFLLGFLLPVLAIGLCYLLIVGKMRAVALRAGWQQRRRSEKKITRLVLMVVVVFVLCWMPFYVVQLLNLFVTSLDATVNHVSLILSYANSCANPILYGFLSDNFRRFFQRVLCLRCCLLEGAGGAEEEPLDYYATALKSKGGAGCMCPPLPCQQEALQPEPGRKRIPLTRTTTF
Chain of Somatostatin receptor type 1 (P30872 whole entry): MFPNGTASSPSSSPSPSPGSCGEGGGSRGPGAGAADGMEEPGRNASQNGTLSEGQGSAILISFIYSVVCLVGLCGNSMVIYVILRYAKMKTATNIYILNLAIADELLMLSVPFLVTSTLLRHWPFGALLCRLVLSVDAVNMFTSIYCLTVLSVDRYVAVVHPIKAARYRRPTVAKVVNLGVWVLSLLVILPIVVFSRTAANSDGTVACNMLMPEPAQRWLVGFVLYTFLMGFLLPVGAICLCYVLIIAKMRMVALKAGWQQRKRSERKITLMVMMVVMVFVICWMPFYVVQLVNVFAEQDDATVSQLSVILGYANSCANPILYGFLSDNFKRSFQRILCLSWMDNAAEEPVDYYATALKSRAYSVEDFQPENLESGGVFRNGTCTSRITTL
Chain of Somatostatin receptor type 3 (P32745 whole entry): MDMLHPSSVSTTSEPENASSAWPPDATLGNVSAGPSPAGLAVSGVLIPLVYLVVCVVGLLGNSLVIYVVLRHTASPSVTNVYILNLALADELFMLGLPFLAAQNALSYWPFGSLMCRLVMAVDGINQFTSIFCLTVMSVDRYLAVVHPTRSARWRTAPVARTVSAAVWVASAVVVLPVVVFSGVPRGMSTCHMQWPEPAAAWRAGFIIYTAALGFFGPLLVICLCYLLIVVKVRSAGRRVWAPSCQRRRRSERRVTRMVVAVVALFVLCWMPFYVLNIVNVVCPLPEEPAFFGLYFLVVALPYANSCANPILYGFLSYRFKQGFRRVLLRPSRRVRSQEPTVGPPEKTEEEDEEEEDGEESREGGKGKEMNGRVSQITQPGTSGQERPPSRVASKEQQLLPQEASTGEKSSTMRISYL
Chain of Somatostatin receptor type 2 (P30874 whole entry): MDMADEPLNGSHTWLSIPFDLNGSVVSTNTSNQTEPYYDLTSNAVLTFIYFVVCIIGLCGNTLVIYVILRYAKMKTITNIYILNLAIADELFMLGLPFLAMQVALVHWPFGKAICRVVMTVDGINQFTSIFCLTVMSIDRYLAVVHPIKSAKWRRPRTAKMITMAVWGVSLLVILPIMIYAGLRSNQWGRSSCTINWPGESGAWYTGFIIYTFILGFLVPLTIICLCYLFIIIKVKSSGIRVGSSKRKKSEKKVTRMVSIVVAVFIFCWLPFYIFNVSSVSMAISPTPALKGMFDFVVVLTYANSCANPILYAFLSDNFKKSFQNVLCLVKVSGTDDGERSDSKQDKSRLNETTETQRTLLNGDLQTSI

Ki [1] [nM]	Ki [2] [nM]	Ki [3] [nM]	Log Ki [4]	Ki [5] [nM]	Ki [4] [nM]	SMILES
0.794	0.501	2.51	> -9.5	1		C[C@H](N)C(=O)NCC(=O)N[C@H]1CSSC[C@@H](C(N)=O)NC(=O)[C@H](CO)NC(=O)[C@H]([C@@H](C)O)NC(=O)[C@H](Cc2ccccc2)NC(=O)[C@H]([C@@H](C)O)NC(=O)[C@H](CCCCN)NC(=O)[C@H](Cc2c[nH]c3ccccc23)NC(=O)[C@H](Cc2ccccc2)NC(=O)[C@H](Cc2ccccc2)NC(=O)[C@H](CC(N)=O)NC(=O)[C@H](C)NC1=O (H-AGCANFFWKTFTSC-NH2; disulfide 3-14)
			> -7			C[C@@H](O)[C@@H]1NC(=O)[C@H](CCCCN)NC(=O)[C@@H](Cc2c[nH]c3ccccc23)NC(=O)[C@H](Cc2ccccc2)NC(=O)[C@@H]2CCCN2C(=O)[C@H](Cc2ccccc2)NC1=O
10	3.16	2		0.631	631	NCCCCCNC(=O)O[C@@H]1C[C@H]2C(=O)N[C@@H](Cc3ccccc3)C(=O)N[C@H](Cc3c[nH]c4ccccc34)C(=O)N[C@@H](CCCCN)C(=O)N[C@@H](Cc3ccc(OCc4ccccc4)cc3)C(=O)N[C@@H](Cc3ccccc3)C(=O)N2C1
1.58	0.794	0.631	> -7	0.251		NCCCC[C@@H]1NC(=O)[C@@H](Cc2c[nH]c3ccccc23)NC(=O)[C@H](Cc2ccc(O)cc2)NC(=O)[C@@H]2C[C@@H](OC(=O)NCCN)CN2C(=O)[C@H](Cc2ccccc2)NC(=O)[C@H](Cc2ccc(OCc3ccccc3)cc2)NC1=O
1000	1000	1000		100	> 1000	C[C@H](N)C(=O)NCC(=O)N[C@H]1CSSC[C@@H](C(N)=O)NC(=O)[C@H](CO)NC(=O)[C@H]([C@@H](C)O)NC(=O)[C@H](Cc2ccccc2)NC(=O)[C@H]([C@@H](C)O)NC(=O)[C@H](C)NC(=O)[C@H](Cc2c[nH]c3ccccc23)NC(=O)[C@H](Cc2ccccc2)NC(=O)[C@H](Cc2ccccc2)NC(=O)[C@H](CC(N)=O)NC(=O)[C@H](CCCCN)NC1=O (H-AGCKNFFWATFTSC-NH2; disulfide 3-14)
158	0.0794	20			158	CC(C)[C@@H]1NC(=O)[C@H](CCCCN)NC(=O)[C@@H](Cc2c[nH]c3ccccc23)NC(=O)[C@H](Cc2ccc(O)cc2)NC(=O)[C@@H](NC(=O)[C@H](N)Cc2ccccc2)CSSC[C@@H](C(=O)N[C@@H](Cc2c[nH]c3ccccc23)C(N)=O)NC1=O [VAPREOTIDE] (H-[dF]CY[dW]KVCW-NH2; disulfide 2-7)
3.98	2	0.794		0.398	501	NCCCC[C@@H]1NC(=O)[C@@H](Cc2c[nH]c3ccccc23)NC(=O)[C@H](Cc2ccccc2)NC(=O)[C@@H]2C[C@@H](OC(=O)NCCN)CN2C(=O)[C@H](Cc2ccccc2)NC(=O)[C@H](Cc2ccc(OCc3ccccc3)cc2)NC1=O (cyclo(F[Hyp]([CO-Ethylenediamine])F[dW]KY(Bn)))
> 1000		31.6		12.6		CC(C)[C@@H]1NC(=O)[C@H](CCCCN)NC(=O)[C@@H](Cc2c[nH]c3ccccc23)NC(=O)[C@H](Cc2ccc(O)cc2)NC(=O)[C@H](C)N(C)C(=O)[C@H](Cc2ccccc2)NC1=O [SEGLITIDE]

SMILES	Ki [1] [nM]	Ki [2] [nM]	Ki [3] [nM]	Log Ki [4]	Ki [5] [nM]	Ki [4] [nM]
CC(C)[C@@H]1NC(=O)[C@H](CCCCN)NC(=O)[C@@H](Cc2c[nH]c3ccccc23)NC(=O)[C@H](Cc2ccc(O)cc2)NC(=O)[C@@H](NC(=O)[C@H](N)Cc2ccc3ccccc3c2)CSSC[C@@H](C(=O)N[C@H](C(N)=O)[C@@H](C)O)NC1=O [LANREOTIDE]	501					
